Results published in patent publication US6828348B2, “L-ascorbic acid-2-o-maleic acid-a-tocopherol diester 1-propanol adduct and process for producing the same” (Senju Pharmaceutical Co., Ltd., priority 2002, dated 2004).
Where two headings read alike, the source gives them in different places.

Legend:
[1] = 4 weeks, liquid chromatography
Description: The experimental conditions are as follows:
Detector: Ultraviolet absorptiometer (wave length: 220 nm)
Column: A stainless steel tube of 6 mm ID and 15 cm length being packed with octadecylated silica gel of […] in particle size designed for use in liquid chromatograph.
Mobile phase: As prepared by dissolving 0.4 g of crystalline sodium dihydrogenphosphate and 0.3 g of sodium chloride in 50 ml of water, and adding 500 ml of methanol and 450 ml of acetonitrile, followed by addition of phosphoric acid to adjust to pH 4.0.
Flow rate: As regulated so that the retention time may be about 12 min.

[2] = target: T1, elastase originated from human white blood cells (Homo sapiens, UniProt P08246); assay: Elastase inhibitory activity (fluorogenic synthetic substrate); format: biochemical
T1 construct: elastase originated from human white blood cells; from tissue; host or cells: human white blood cells
T1 sequence (P08246 30-247 limits assumed): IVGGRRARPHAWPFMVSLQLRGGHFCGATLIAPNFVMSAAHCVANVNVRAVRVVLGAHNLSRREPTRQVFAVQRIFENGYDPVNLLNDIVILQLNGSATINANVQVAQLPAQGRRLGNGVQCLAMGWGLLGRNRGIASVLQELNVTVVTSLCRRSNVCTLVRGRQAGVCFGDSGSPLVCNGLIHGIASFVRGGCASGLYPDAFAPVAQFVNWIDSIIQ
Source text: are the reversibly extensible, highly elastic protein that is principal constituent of elastic fibers to maintain the extensibility and elasticity of the skin. […] are degraded and synthesized in the sustainable manner, thus acting to maintain the extensibility and elasticity of the skin, but may lose their extensibility and elasticity, when the rate of their degradation by elastase owing to aging, etc. exceeds the rate of their synthesis. Accordingly, inhibition of the elastase enables the skin to maintain its extensibility and elasticity. Such being the case, the Compound of the present invention is tested for its elastase inhibitory activity in the following manner: […] Testing method […]

Row | Compound | Residual ratio ([1]; storage at 4° C.) | Residual ratio ([1]; storage at 40° C.) | Residual ratio ([1]; storage at 50° C.) | Elastase inhibitory activity (in words) ([2]; 0.01 to 1 mM, Table 2) | Ratio of elastase inhibition ([2]; test specimen 0.01 mM) | Ratio of elastase inhibition ([2]; test specimen 0.1 mM) | Ratio of elastase inhibition ([2]; test specimen 1 mM)
1 | CCO.Cc1c(C)c2c(c(C)c1OC(=O)/C=C\C(=O)OC1=C(O)[C@@H]([C@@H](O)CO)OC1=O)CCC(C)(CCCC(C)CCCC(C)CCCC(C)C)O2 (stereo partly drawn) [Reference Example 1, L-Ascorbic acid-2-O-maleic acid-α-tocopherol diester.ethanol adduct] | 99.7% | 90.9% | 81.7% | – | – | – | –
2 | L-Ascorbic acid-2-O-maleic acid-α-tocopherol diester.1-propanol adduct [Example 1] | – | – | – | remarkable elastase inhibitory activity | 4 | 19 | 71
